Results as given in patent publication US8431577B2, “Crystalline form of eszopiclone, composition, preparation and uses thereof” (Tianjin Tasly Group Co., Ltd., priority 2008, dated 2013).

Experiments:
[1] = test system: Male Long-Evans rats; experiment: Maze test; type: in vivo, rat
Description: Male Long-Evans rats (weighing 250˜275 g) were adopted, divided into 3 groups, and fed in a 12-hour light-dark cycle. After one week of feeding, the experiment was carried out.

[2] = Solubility test (Chinese Pharmacopoeia 2000 general notice); type: physicochemical; settings: 25±2° C.
Description: Solubility test had been carried out by common solvents in accordance with the method of the GENERAL NOTICE in Chinese Pharmacopoeia (2000 Edition).
Test method: an appropriate amount of fine powder of the crystalline form of S-zopiclone was weighed accurately, into which a certain amount of solvent was added with an accuracy of ±2%. At a temperature of 25±2° C., the solution was shaken violently for 30 seconds, which is repeated at 5-minute intervals. The solubility behavior within 30 minutes had been observed.

[3] = High humidity (25° C., RH 92.5%) stability test; type: physicochemical; settings: for Content (%) / Related substances (%) Levozopiclone / Related substances (%) Other impurities: High humidity (92.5%), 25° C.; for Weight gain: high humidity 25° C., RH 92.5%
Description: The crystalline form of S-zopiclone of the present invention was introduced into an open and colorless transparent weighing-bottle batch by batch, and placed in a closed vessel (KNO3 saturated solution, RH: 92.5%) for 10 days. The specimens were sampled on the 5th and 10th day respectively to measure their stability in accordance with the key stability-relevant items. Meanwhile, the weight of the tested drug pre-and post test was measured accurately.

[4] = Accelerated stability test; settings: 40±2° C., RH 75±5%
Description: The crystalline form of S-zopiclone was packaged in packages simulated the commercial ones, and placed in a thermostat container (temperature: 40±2° C., RH:75±5%) for 6 months. The specimens were sampled on the 1st, 2nd, 3rd and 6th month respectively to measure their stability in accordance with the key stability-relevant items.

[5] = Crystal transformation under the stability tests (X-ray diffraction); type: physicochemical; settings: under all stability tests (60° C., RH 92.5%, strong light, accelerated, long-term)
[6] = Pharmacokinetic study pre and post eating in healthy volunteers; type: in vivo, human; settings: single oral
Description: In addition, the effect of eating food on in vivo metabolism of the drug had been evaluated. 8 subjects were randomly divided into 2 groups. In 2 tests, the subjects of each group received the drug at the same dose (6 mg) in the cases of fasting and 5 minutes after taking standard diet. The interval between two tests was 2 weeks.
After a single oral administration of the tested drug, 6 ml anticoagulant heparin venous blood samples were collected at 0th (immediately before administration), 15th minute, 30th minute, 45th minute, 60th minute, 1.5th hour, 2nd hour, 3rd hour, 4th hour, 6th hour, 8th hour, 12th hour, 16th hour and 24th hour respectively to determine the concentration of S-zopiclone. By HPLC, the plasma drug concentration of each subject had been determined at different time-points to give a concentration-time curve. The main pharmacokinetic parameters of the subjects had been calculated, including AUC, Cmax, Tmax, AUC0˜α, AUC0-t and t1/2, etc.
The crystalline form of S-zopiclone was prepared into coated tablets (3 mg S-zopiclone/tablet) in accordance with Example 1 and Example 9, single orally administrated.
Pharmacokinetic indices: the plasma drug concentration had been determined immediately before administration and at different time-points after administration of the drug to give a concentration-time curve. The main pharmacokinetic parameters had been calculated, including Cmax, Tmax, AUC0˜α, AUC0-t and t1/2, etc.
Pharmacokinetic: 3P97 statistical analysis software had been applied to calculate the main pharmacokinetic parameters.

[7] = 6 mg (eating), 5 minutes after standard diet

CN1CCN(C(=O)O[C@H]2c3nccnc3C(=O)N2c2ccc(Cl)cn2)CC1 [crystalline form of S-zopiclone, (+)-(S)-(4-methylpiperazine-1-carboxylate)(6-(5-chloropyridinyl-2-yl)-7-carbonyl-6,7-dihydro-5-H-pyrrolo[3,4-b]pyrazin-5-yl ester)]
residence time in the open arm ([1]; 5 mg/Kg body weight): significantly increase
effect on total entries, open arm entries and close arm entries ([1]; 10 mg/Kg body weight): significant effect
residence time in the open arm ([1]; 10 mg/Kg body weight): significantly increase
Required amount of the solvent ([2]; acetone, 10 mg sample): 2.0 mL
Required amount of the solvent for dissolving 1 g of the sample ([2]; acetone): 200 mL
Solubility ([2]; acetone): slightly soluble
Required amount of the solvent ([2]; anhydrous ether, 10 mg sample): 90.0 mL
Required amount of the solvent for dissolving 1 g of the sample ([2]; anhydrous ether): 9000 mL
Solubility ([2]; anhydrous ether): very slightly soluble
Required amount of the solvent ([2]; chloroform, 100 mg sample): 0.6 mL
Required amount of the solvent for dissolving 1 g of the sample ([2]; chloroform): 6 mL
Solubility ([2]; chloroform): freely soluble
Required amount of the solvent ([2]; ethanol, 10 mg sample): 15.0 mL
Required amount of the solvent for dissolving 1 g of the sample ([2]; ethanol): 1500 mL
Solubility ([2]; ethanol): very slightly soluble
Required amount of the solvent ([2]; ethyl acetate, 10 mg sample): 6.0 mL
Required amount of the solvent for dissolving 1 g of the sample ([2]; ethyl acetate): 600 mL
Solubility ([2]; ethyl acetate): slightly soluble
Required amount of the solvent ([2]; hydrochloric acid (0.1 mol/L), 10 mg sample): 0.7 mL
Required amount of the solvent for dissolving 1 g of the sample ([2]; hydrochloric acid (0.1 mol/L)): 70 mL
Solubility ([2]; hydrochloric acid (0.1 mol/L)): Soluble
Required amount of the solvent ([2]; methanol, 10 mg sample): 5.0 mL
Required amount of the solvent for dissolving 1 g of the sample ([2]; methanol): 500 mL
Solubility ([2]; methanol): slightly soluble
Required amount of the solvent ([2]; water, 10 mg sample): 200 mL
Required amount of the solvent for dissolving 1 g of the sample ([2]; water): 20000 mL
Solubility ([2]; water): practically insoluble
Content (%) ([3]; day 0): 100.06%
Related substances (%) Levozopiclone ([3]; day 0): 0.06%
Related substances (%) Other impurities ([3]; day 0): 0.09%
Content (%) ([3]; day 5): 99.86%
Related substances (%) Levozopiclone ([3]; day 5): 0.08%
Related substances (%) Other impurities ([3]; day 5): 0.11%
Content (%) ([3]; day 10): 99.91%
Related substances (%) Levozopiclone ([3]; day 10): 0.07%
Related substances (%) Other impurities ([3]; day 10): 0.11%
Weight gain ([3]; 5th day): 0.07%
Weight gain ([3]; 10th day): 0.08%
stability (character, melting point, related substances versus 0th day) ([4]; 6 months of accelerated test): remained stable
Content (%) ([4]; month 0): 100.06%
Related substances (%) Levozopiclone ([4]; month 0): 0.06%
Related substances (%) Other impurities ([4]; month 0): 0.09%
Content (%) ([4]; month 1): 100.13%
Related substances (%) Levozopiclone ([4]; month 1): 0.07%
Related substances (%) Other impurities ([4]; month 1): 0.10%
Content (%) ([4]; month 2): 100.02%
Related substances (%) Levozopiclone ([4]; month 2): 0.07%
Related substances (%) Other impurities ([4]; month 2): 0.12%
Content (%) ([4]; month 3): 99.91%
Related substances (%) Levozopiclone ([4]; month 3): 0.05%
Related substances (%) Other impurities ([4]; month 3): 0.12%
Content (%) ([4]; month 6): 99.73%
Related substances (%) Levozopiclone ([4]; month 6): 0.06%
Related substances (%) Other impurities ([4]; month 6): 0.09%
phenomenon of crystal transformation [5]: had not been observed
AUC0-∞ [6, 7]: 284.00 ± 88.36 µg/h/L
Cmax [6, 7]: 0.0626 ± 0.01895 µg/mL
Tmax [6, 7]: 1.75 ± 0.89 h
plasma clearance [6, 7]: 21.4 ± 7.4 L/h
t1/2 [6, 7]: 6.75 ± 1.49 h
AUC0-∞ ([6]; 6 mg (fasting)): 335.73 ± 145.57 µg/h/L
Cmax ([6]; 6 mg (fasting)): 0.06069 ± 0.01143 µg/mL
Tmax ([6]; 6 mg (fasting)): 1.31 ± 0.44 h
plasma clearance ([6]; 6 mg (fasting)): 16.00 ± 3.3 L/h
t1/2 ([6]; 6 mg (fasting)): 7.17 ± 2.69 h
